Laboratory results taken from US7358402B2, “Reduced coenzyme Q10 crystal with excellent stability and composition containing said reduced coenzyme Q10 crystal” (Kaneka Corporation, priority 2003, dated 2008).

Experiment: Plasma concentration of reduced coenzyme Q10 after oral administration to rats
Format: in vivo
Details: SD rats, male, oral 30 mg/kg as suspension with rapeseed oil (1:2) in 0.2% Tween 80
Method: Using the reduced coenzyme Q10 obtained in Example 1 and the reduced coenzyme Q10 obtained in Comparative Example 1, the blood concentrations of reduced coenzyme Q10 were measured when they were orally administered to rats. Each samples and rapeseed oil were added to aqueous solution of 0.2% Tween 80 to prepare suspension in which reduced coenzyme Q10:rapeseed oil=1:2. The suspension was orally administered to SD rats (male, 6 rats in one group) forcibly using a stomach sonde in 30 mg (reduced coenzyme Q10)/kg (rat body weight). Thereafter, the blood was sampled with time, and the plasma concentration of reduced coenzyme Q10 was measured by HPLC.

| Compound | Tmax, time to maximum plasma concentration (listed as Reduced coenzyme Q10 crystals obtained in Comparative Example 1, 30 mg/kg) [h] | Tmax, time to maximum plasma concentration (listed as Reduced coenzyme Q10 crystals obtained in Example 1, 30 mg/kg) [h] |
| --- | --- | --- |
| COc1c(O)c(C)c(C/C=C(\C)CC/C=C(\C)CC/C=C(\C)CC/C=C(\C)CC/C=C(\C)CC/C=C(\C)CC/C=C(\C)CC/C=C(\C)CC/C=C(\C)CCC=C(C)C)c(O)c1OC [Crystals obtained in Comparative Example 1] [reduced coenzyme Q10] | 8 | – |
| COc1c(O)c(C)c(C/C=C(\C)CC/C=C(\C)CC/C=C(\C)CC/C=C(\C)CC/C=C(\C)CC/C=C(\C)CC/C=C(\C)CC/C=C(\C)CC/C=C(\C)CCC=C(C)C)c(O)c1OC [Crystals obtained in Example 1, reduced coenzyme Q10] | – | 4 |
